Measurements published in US7935722B2 (Eli Lilly and Company, priority 2005, dated 2011).
Read-outs that look alike come from different tables or passages of the source.

Assays:
[1] = biological target: T1, human AR (androgen receptor) (Homo sapiens, UniProt P10275); assay: Steroid hormone nuclear receptor binding assay, AR binding
T1 construct: expressed in transfected cells; host or cells: 293 cells (293-AR lysate)
T1 sequence (P10275 1-920): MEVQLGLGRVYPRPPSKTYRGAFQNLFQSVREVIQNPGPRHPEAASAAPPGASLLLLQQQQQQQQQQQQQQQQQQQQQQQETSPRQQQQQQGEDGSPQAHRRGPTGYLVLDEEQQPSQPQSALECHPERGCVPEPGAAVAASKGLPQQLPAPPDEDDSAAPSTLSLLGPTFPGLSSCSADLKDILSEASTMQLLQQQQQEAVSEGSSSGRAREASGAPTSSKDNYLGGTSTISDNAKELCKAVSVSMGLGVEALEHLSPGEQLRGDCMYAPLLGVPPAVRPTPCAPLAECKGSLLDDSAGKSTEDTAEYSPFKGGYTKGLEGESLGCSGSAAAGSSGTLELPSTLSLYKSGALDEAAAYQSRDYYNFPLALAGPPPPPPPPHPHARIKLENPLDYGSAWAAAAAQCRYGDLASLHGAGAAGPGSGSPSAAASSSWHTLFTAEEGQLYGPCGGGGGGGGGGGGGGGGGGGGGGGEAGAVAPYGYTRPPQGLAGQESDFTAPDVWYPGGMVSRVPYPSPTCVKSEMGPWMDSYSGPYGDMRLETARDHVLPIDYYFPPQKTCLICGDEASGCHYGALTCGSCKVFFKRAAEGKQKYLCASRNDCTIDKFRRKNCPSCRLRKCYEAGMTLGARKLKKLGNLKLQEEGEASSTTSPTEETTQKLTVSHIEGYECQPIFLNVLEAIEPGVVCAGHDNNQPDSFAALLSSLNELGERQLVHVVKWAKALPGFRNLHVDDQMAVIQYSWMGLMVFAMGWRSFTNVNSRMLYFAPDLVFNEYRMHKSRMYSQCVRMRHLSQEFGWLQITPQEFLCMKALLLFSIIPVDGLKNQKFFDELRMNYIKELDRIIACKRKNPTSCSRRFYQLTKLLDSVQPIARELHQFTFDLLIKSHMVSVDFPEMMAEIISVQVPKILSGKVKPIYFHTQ
How it was run: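 Competition binding with lysates of 293 cells overexpressing human AR, [3H]-methyltrienolone tracer, compounds from about 0.01 nM to 10 μM, overnight at 4 °C; non-specific binding set with 500 nM methyltrienolone. Bound tracer counted by scintillation after charcoal-dextran separation; IC50 converted to Ki by Cheng-Prusoff using Kd from saturation binding.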

[2] = biological target: T2, human androgen receptor (AR) (Homo sapiens, UniProt P10275); assay: C2C12 AR/ARE reporter assay; assay type: cell-based
T2 construct: expressed in transfected cells; host or cells: mouse myoblast C2C12 cells, transiently co-transfected
T2 sequence (P10275 1-920): T1 sequence (P10275 1-920)
How it was run: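 Mouse C2C12 myoblasts co-transfected with AR/ARE reporter were plated in charcoal-stripped serum and treated for 48 h with compound from about 0.01 nM to 10 μM. Luciferase activity gave EC50 by 4-parameter logistic fit. Efficacy is expressed as % of maximal stimulation by 10 nM methyltrienolone.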

[3] = average of n trials, read-out: AR binding Ki
[4] = C2C12 AR/ARE reporter assay, average of n trials, read-out: C2C12 % Efficacy
[5] = C2C12 AR/ARE reporter assay, average of n trials, read-out: C2C12 EC50
[6] = C2C12, read-out: C2C12 % Efficacy

Structure (SMILES): CC(C)C(=O)NC1CCc2c(c3cc(C(F)F)ccc3n2Cc2cccc(F)c2)C1 (stereo not drawn) [Example 198, N-[6-Difluoromethyl-9-(3-fluoro-benzyl)-2,3,4,9-tetrahydro-1H-carbazol-3-yl]-isobutyramide]
- Ki [1, 3]: 3.2 nM
- Emax [2, 4]: 102%
- EC50 [2, 5]: 11 nM

Structure (SMILES): O=C(N[C@@H]1CCc2c(c3cc(/C=N/O)ccc3n2Cc2cccc(F)c2)C1)C1CC1 [Example 203, (R)-Cyclopropanecarboxylic acid[9-(3-fluoro-benzyl)-6-(hydroxyimino-methyl)-2,3,4,9-tetrahydro-1H-carbazol-3-yl]-amide]
- Ki [1, 3]: 12.3 nM
- Emax [2, 4]: 73.1%
- EC50 [2, 5]: 20.2 nM

Structure (SMILES): CC[C@@H](C)C(=O)NC1CCc2c(c3cc(Br)ccc3n2Cc2cccc(F)c2)C1 (stereo partly drawn) [Example 171]
- Ki [1, 3]: 8.2 nM
- Emax [2, 4]: 63.5%
- EC50 [2, 5]: 411 nM

Structure (SMILES): CC(C)C(=O)NC1CCc2c(c3cc(Br)ccc3n2Cc2cccc(F)c2)C1 (stereo not drawn) [Example 35, N-[6-bromo-9-(3-fluoro-benzyl)-2,3,4,9-tetrahydro-1H-carbazol-3-yl]-isobutyramide]
- Ki [1]: 2.6 nM
- EC50 [2]: 2.3 nM
- Emax [2, 6]: 74.1%

Structure (SMILES): CC(C)C(=O)NC1CCc2c(c3cc(OC(F)(F)F)ccc3n2Cc2cccc(F)n2)C1 (stereo not drawn) [Example 162, N-[9-(6-Fluoro-pyridin-2-ylmethyl)-6-trifluoromethoxy-2,3,4,9-tetrahydro-1H-carbazol-3-yl]-isobutyramide]
- Ki [1]: 8.6 nM
- EC50 [2]: 9.2 nM
- Emax [2, 6]: 81.7%

Structure (SMILES): COc1cccc2c3c(n(Cc4ccccc4)c12)CCC(NC(=O)C(C)C)C3 (stereo not drawn) [Example 76]
- Ki [1]: 478 nM
- EC50 [2]: 1710 nM
- Emax [2, 6]: 58.1%

Structure (SMILES): Cc1csc(-c2ccc3c(c2)c2c(n3Cc3cccc(F)c3)CC[C@@H](NC(=O)C(C)C)C2)n1 [Example 128, (R)-N-[9-(3-Fluorobenzyl)-6-(4-methylthiazol-2-yl)-2,3,4,9-tetrahydro-1H-carbazol-3-yl]isobutyramide]
- Ki [1]: 43 nM
- EC50 [2]: 236 nM
- Emax [2, 6]: 72.5%

Structure (SMILES): CN(C)C(=O)NC1CCc2c(c3cc(C#N)ccc3n2Cc2cccc(F)c2)C1 (stereo not drawn) [Example 178, 3-[6-Cyano-9-(3-fluorobenzyl)-2,3,4,9-tetrahydro-1H-carbazol-3-yl]-1,1-dimethylurea]
- Ki [1, 3]: 5.9 nM
- Emax [2, 4]: 81.8%
- EC50 [2, 5]: 11.5 nM

Structure (SMILES): CO/N=C/c1ccc2c(c1)c1c(n2Cc2cccc(F)c2)CCC(NC(=O)C2CC2)C1 (stereo not drawn) [Example 202, Cyclopropanecarboxylic acid[9-(3-fluorobenzyl)-6-(methoxyimino-methyl)-2,3,4,9-tetrahydro-1H-carbazol-3-yl]-amide]
- Ki [1]: 4.7 nM
- EC50 [2]: 1.5 nM
- Emax [2, 6]: 90.5%

Structure (SMILES): Cc1csc(Cn2c3c(c4cc(C#N)ccc42)C[C@H](NC(=O)C(C)C)CC3)n1 [Example 156, (R)-N-[6-Cyano-9-(4-methyl-thiazol-2-ylmethyl)-2,3,4,9-tetrahydro-1H-carbazol-3-yl]-isobutyramide]
- Ki [1]: 10.8 nM
- EC50 [2]: 30.5 nM
- Emax [2, 6]: 79.4%

Structure (SMILES): CC(C)C(=O)NC1CCc2c(c3cc(Cl)ccc3n2Cc2ccccc2[N+](=O)[O-])C1 (stereo not drawn) [Example 104, N-[6-Chloro-9-(2-nitro-benzyl)-2,3,4,9-tetrahydro-1H-carbazol-3-yl]-isobutyramide]
- Ki [1, 3]: 22.5 nM
- Emax [2, 4]: 71.6%
- EC50 [2, 5]: 555 nM

Structure (SMILES): CC(C)C(=O)NC1CCc2c(c3cc(C#N)ccc3n2Cc2ccccc2NS(C)(=O)=O)C1 (stereo not drawn) [Example 113, N-[6-Cyano-9-(2-methanesulfonylamino-benzyl)-2,3,4,9-tetrahydro-1H-carbazol-3-yl]-isobutyramide]
- Ki [1]: 21.4 nM
- EC50 [2]: 35.8 nM
- Emax [2, 6]: 97.7%

Structure (SMILES): CCC(=O)NC1CCc2c(c3cc(Br)ccc3n2Cc2cccc(F)c2)C1 (stereo not drawn) [Example 175]
- Ki [1]: 3.2 nM
- EC50 [2]: 11.2 nM
- Emax [2, 6]: 80.2%

Structure (SMILES): CC(C)C(=O)NC1CCc2c(c3cc(C#N)ccc3n2Cc2cccs2)C1 (stereo not drawn) [Example 158, N-(6-Cyano-9-thiophen-2-ylmethyl-2,3,4,9-tetrahydro-1H-carbazol-3-yl)-isobutyramide]
- Ki [1]: 3.1 nM
- EC50 [2]: 4.5 nM
- Emax [2, 6]: 124%

Structure (SMILES): CC(C)C(=O)NC1CCc2c(c3cc(C#N)ccc3n2Cc2ccccc2)C1 (stereo not drawn) [Example 85]
- Ki [1]: 4.6 nM
- EC50 [2]: 3.8 nM
- Emax [2, 6]: 79.8%

Structure (SMILES): Cc1nc(Cn2c3c(c4cc(C#N)ccc42)CC(NC(=O)C(C)C)CC3)cs1 (stereo not drawn) [Example 150, N-[6-Cyano-9-(2-methyl-thiazol-4-ylmethyl)-2,3,4,9-tetrahydro-1H-carbazol-3-yl]-isobutyramide]
- Ki [1]: 19.6 nM
- EC50 [2]: 98.8 nM
- Emax [2, 6]: 91.3%

Structure (SMILES): CC(C)C(=O)N[C@@H]1CCc2c(c3cc(C#N)ccc3n2Cc2ccccn2)C1 [Example 161, (R)-N-(6-cyano-9-pyridin-2-ylmethyl-2,3,4,9-tetrahydro-1H-carbazol-3-yl)-isobutyramide]
- Ki [1]: 6.8 nM
- EC50 [2]: 3.1 nM
- Emax [2, 6]: 95.7%

Structure (SMILES): CN(C)C(=O)NC1CCc2c(c3cc(OC(F)(F)F)ccc3n2Cc2cccc(F)n2)C1 (stereo not drawn) [Example 165]
- Ki [1]: 14.2 nM
- EC50 [2]: 15.3 nM
- Emax [2, 6]: 74.6%

Structure (SMILES): CC(C)C(=O)N[C@@H]1CCc2c(c3cc(-c4cnc(N)s4)ccc3n2Cc2cccc(F)c2)C1 [Example 141]
- Ki [1]: 10 nM
- EC50 [2]: 41 nM
- Emax [2, 6]: 102%

Structure (SMILES): CC(C)C(=O)NC1CCc2c(c3cc(OC(F)(F)F)ccc3n2Cc2cccc(F)c2)C1 (stereo not drawn) [Example 166]
- Ki [1]: 5.3 nM
- EC50 [2]: 6.2 nM
- Emax [2, 6]: 81.1%

Structure (SMILES): CC(C)C(=O)N[C@H]1CCc2c(c3cc(C#N)ccc3n2Cc2ccccc2N)C1 (single isomer, unassigned) [Example 111, S-N-[9-(2-Amino-benzyl)-6-cyano-2,3,4,9-tetrahydro-1H-carbazol-3-yl]-isobutyramide]
- Ki [1]: 127 nM
- EC50 [2]: 55.2 nM
- Emax [2, 6]: 111%

Structure (SMILES): CC(=O)c1ccc2c(c1)c1c(n2Cc2cccc(F)c2)CC[C@@H](NC(=O)C(C)C)C1 [Example 191, (R)-N-[6-Acetyl-9-(3-fluoro-benzyl)-2,3,4,9-tetrahydro-1H-carbazol-3-yl]-isobutyramide]
- Ki [1]: 3.3 nM
- EC50 [2]: 1.2 nM
- Emax [2, 6]: 91.2%

Structure (SMILES): CC(C)C(=O)N[C@@H]1CCc2c(c3cc(C#N)ccc3n2Cc2cnccn2)C1 [Example 160, (R)-N-(6-Cyano-9-pyrazin-2-ylmethyl-2,3,4,9-tetrahydro-1H-carbazol-3-yl)-isobutyramide]
- Ki [1]: 19.8 nM
- EC50 [2]: 6.3 nM
- Emax [2, 6]: 89.5%

Structure (SMILES): CC(C)C(=O)NC1CCc2c(c3cc(C=O)ccc3n2Cc2cccc(F)c2)C1 (stereo not drawn) [Example 197, N-[9-(3-Fluoro-benzyl)-6-formyl-2,3,4,9-tetrahydro-1H-carbazol-3-yl]-isobutyramide]
- Ki [1]: 4.2 nM
- EC50 [2]: 26.8 nM
- Emax [2, 6]: 147%

Structure (SMILES): COc1ccc2c(c1)c1c(n2Cc2ccccc2)CCC(NC(=O)C2CC2)C1 (stereo not drawn) [Example 68, Cyclopropanecarboxylic acid (9-benzyl-6-methoxy-2,3,4,9-tetrahydro-1H-carbazol-3-yl)-amide]
- Ki [1]: 46.2 nM
- EC50 [2]: 40.8 nM
- Emax [2, 6]: 98%

Structure (SMILES): Cc1nc(Cn2c3c(c4cc(C#N)ccc42)C[C@@H](NC(=O)C(C)C)CC3)cs1 [Example 152, (S)-N-[6-cyano-9-(2-methyl-thiazol-4-ylmethyl)-2,3,4,9-tetrahydro-1H-carbazol-3-yl]-isobutyramide]
- Ki [1]: 208 nM
- EC50 [2]: 409 nM
- Emax [2, 6]: 61.1%

Structure (SMILES): CC(C)C(=O)NC1CCc2c(c3cc(N(C)C)ccc3n2Cc2cccc(F)c2)C1 (stereo not drawn) [Example 62, N-[6-Dimethylamino-9-(3-fluoro-benzyl)-2,3,4,9-tetrahydro-1H-carbazol-3-yl]-isobutyramide]
- Ki [1]: 110 nM
- EC50 [2]: 369 nM
- Emax [2, 6]: 56.1%

Structure (SMILES): CN(C)C(=O)NC1CCc2c(c3cc(Br)ccc3n2Cc2cccc(F)c2)C1 (stereo not drawn) [Example 176, 3-[6-Bromo-9-(3-fluoro-benzyl)-2,3,4,9-tetrahydro-1H-carbazol-3-yl]-1,1-dimethyl-urea]
- Ki [1]: 7.8 nM
- EC50 [2]: 46 nM
- Emax [2, 6]: 61.5%

Structure (SMILES): CC(C)C(=O)NC1CCc2c(c3cc(C#N)ccc3n2Cc2cccc(Br)c2)C1 (stereo not drawn) [Example 86]
- Ki [1]: 2.6 nM
- EC50 [2]: 36.3 nM
- Emax [2, 6]: 93.9%
